Measured values reported in ChEMBL document CHEMBL4339185 (Eur J Med Chem, 2019).
In brackets after ≈: the same amount, converted by molar mass.

Key:
Staphylococcus aureus [1] = assay: Potency index, ratio of rifampicin MIC to compound MIC for Staphylococcus aureus ATCC 6538; type: functional
[2] = tested on: Staphylococcus epidermidis; assay: Potency index, ratio of rifaximin MIC to compound MIC for Staphylococcus epidermidis 12228; type: functional
[3] = tested on: Staphylococcus epidermidis; assay: Potency index, ratio of rifampicin MIC to compound MIC for Staphylococcus epidermidis ATCC 12228; type: functional
Staphylococcus aureus [4] = assay: Antimicrobial activity against Staphylococcus aureus ATCC 6538 incubated for 18 hrs by serial microdilution method; type: functional; conditions: ATCC 6538, 18 h
Enterococcus faecalis [5] = assay: Potency index, ratio of rifaximin MIC to compound MIC for Enterococcus faecalis ATCC 29212; type: functional
Escherichia coli = assay: Antimicrobial activity against Escherichia coli ATCC 25922 incubated for 18 hrs by serial microdilution method; type: functional; conditions: ATCC 25922, 18 h
[6] = tested on: Staphylococcus epidermidis; assay: Antimicrobial activity against Staphylococcus epidermidis ATCC 49134 incubated for 18 hrs by serial microdilution method; type: functional; conditions: ATCC 49134, 18 h
Staphylococcus aureus [7] = assay: Antimicrobial activity against methicillin-resistant Staphylococcus aureus incubated for 18 hrs by serial microdilution method; type: functional
Enterococcus faecalis [8] = assay: Antimicrobial activity against Enterococcus faecalis ATCC 29212 incubated for 18 hrs by serial microdilution method; type: functional; conditions: ATCC 29212, 18 h
Enterococcus faecalis [9] = assay: Potency index, ratio of rifampicin MIC to compound MIC for Enterococcus faecalis ATCC 29212; type: functional
[10] = Solubility of the compound in water at pH 7 by UV-vis spectrophotometric analysis; type: physicochemical
[11] = tested on: Staphylococcus epidermidis; assay: Potency index, ratio of rifampicin MIC to compound MIC for Staphylococcus epidermidis ATCC 49134; type: functional
[12] = tested on: Staphylococcus epidermidis; assay: Antimicrobial activity against Staphylococcus epidermidis ATCC 12228 incubated for 18 hrs by serial microdilution method; type: functional; conditions: ATCC 12228, 18 h
[13] = tested on: Staphylococcus epidermidis; assay: Potency index, ratio of rifaximin MIC to compound MIC for Staphylococcus epidermidis ATCC 49134; type: functional
Staphylococcus aureus [14] = assay: Potency index, ratio of rifaximin MIC to compound MIC for Staphylococcus aureus ATCC 6538; type: functional
[15] = Lipophilicity, log P of the compound in octanol and water incubated for 1 h under shaking condition; type: physicochemical
Staphylococcus aureus [16] = assay: Antimicrobial activity against MLSB-resistant Staphylococcus aureus incubated for 18 hrs by serial microdilution method; type: functional

| SMILES | Ratio (Staphylococcus aureus [1]) | Ratio [2] | Ratio [3] | MIC (Staphylococcus aureus [4]) [µg/mL] | Ratio (Enterococcus faecalis [5]) | MIC (Escherichia coli) [µg/mL] | MIC [6] [µg/mL] | MIC (Staphylococcus aureus [7]) [µg/mL] | MIC (Enterococcus faecalis [8]) [µg/mL] | Ratio (Enterococcus faecalis [9]) | solubility [10] [µg/mL] | Ratio [11] | MIC [12] [µg/mL] | Ratio [13] | Ratio (Staphylococcus aureus [14]) | logP at 1 h [15] | MIC (Staphylococcus aureus [16]) [µg/mL] |
| --- | --- | --- | --- | --- | --- | --- | --- | --- | --- | --- | --- | --- | --- | --- | --- | --- | --- |
| CO[C@H]1/C=C/O[C@@]2(C)Oc3c(C)c(O)c4c(O)c(c(CN5CCC(N6CCC(C(=O)O)CC6)CC5)c(O)c4c3C2=O)NC(=O)/C(C)=C\C=C\[C@H](C)[C@H](O)[C@@H](C)[C@@H](O)[C@@H](C)[C@H](OC(C)=O)[C@@H]1C | 8 | 8 | 8 | 0.0078 (≈ 0.00846 µM) | 8 | > 8 | 0.0078 (≈ 0.00846 µM) | 0.0078 (≈ 0.00846 µM) | 1 (≈ 1.08 µM) | 8 | 70000 (≈ 75900 µM) | 8 | 0.0078 (≈ 0.00846 µM) | 8 | 8 | -1.34 | 0.0078 (≈ 0.00846 µM) |
| CO[C@H]1/C=C/O[C@@]2(C)Oc3c(C)c(O)c4c(O)c(c(/C=N/NC5=NCCN5)c(O)c4c3C2=O)NC(=O)/C(C)=C\C=C\[C@H](C)[C@H](O)[C@@H](C)[C@@H](O)[C@@H](C)[C@H](OC(C)=O)[C@@H]1C | 8 | 8 | 8 | 0.0078 (≈ 0.00965 µM) | 8 | > 8 | 0.0078 (≈ 0.00965 µM) | 0.0156 (≈ 0.0193 µM) | 1 (≈ 1.24 µM) | 8 | 4250 (≈ 5260 µM) | 8 | 0.0078 (≈ 0.00965 µM) | 8 | 8 | 1.33 | 0.0078 (≈ 0.00965 µM) |
| CO[C@H]1/C=C/O[C@@]2(C)Oc3c(C)c(O)c4c(O)c(c(/C=N/NC(C)(C)C)c(O)c4c3C2=O)NC(=O)/C(C)=C\C=C\[C@H](C)[C@H](O)[C@@H](C)[C@@H](O)[C@@H](C)[C@H](OC(C)=O)[C@@H]1C | – | – | – | 1 (≈ 1.26 µM) | – | > 8 | 0.5 (≈ 0.628 µM) | 1 (≈ 1.26 µM) | 8 (≈ 10.1 µM) | – | < 50 | – | 1 (≈ 1.26 µM) | – | – | 2.43 | 2 (≈ 2.51 µM) |
| CO[C@H]1/C=C/O[C@@]2(C)Oc3c(C)c(O)c4c(O)c(c(CNC56CC7CC(CC(C7)C5)C6)c(O)c4c3C2=O)NC(=O)/C(C)=C\C=C\[C@H](C)[C@H](O)[C@@H](C)[C@@H](O)[C@@H](C)[C@H](OC(C)=O)[C@@H]1C | – | – | – | 0.5 (≈ 0.581 µM) | – | > 8 | 2 (≈ 2.32 µM) | 0.5 (≈ 0.581 µM) | 1 (≈ 1.16 µM) | – | < 50 | – | 4 (≈ 4.65 µM) | – | – | 1.91 | 0.5 (≈ 0.581 µM) |
| CO[C@H]1/C=C/O[C@@]2(C)Oc3c(C)c(O)c4c(O)c(c(CN5CCN(c6ncccc6C(F)(F)F)CC5)c(O)c4c3C2=O)NC(=O)/C(C)=C\C=C\[C@H](C)[C@H](O)[C@@H](C)[C@@H](O)[C@@H](C)[C@H](OC(C)=O)[C@@H]1C | – | – | – | 2 (≈ 2.13 µM) | – | > 8 | 0.5 (≈ 0.531 µM) | 4 (≈ 4.25 µM) | > 8 | – | < 50 | – | 0.5 (≈ 0.531 µM) | – | – | 2.09 | 2 (≈ 2.13 µM) |
| CO[C@H]1/C=C/O[C@@]2(C)Oc3c(C)c(O)c4c(O)c(c(CNC5CCN(CC6CCCCC6)CC5)c(O)c4c3C2=O)NC(=O)/C(C)=C\C=C\[C@H](C)[C@H](O)[C@@H](C)[C@@H](O)[C@@H](C)[C@H](OC(C)=O)[C@@H]1C | – | – | – | 0.25 (≈ 0.276 µM) | – | > 8 | 0.125 (≈ 0.138 µM) | 0.25 (≈ 0.276 µM) | 4 (≈ 4.41 µM) | – | < 50 | – | 0.125 (≈ 0.138 µM) | – | – | 3.31 | 0.125 (≈ 0.138 µM) |
| CO[C@H]1/C=C/O[C@@]2(C)Oc3c(C)c(O)c4c(O)c(c(CN5CCN(c6ccncc6)CC5)c(O)c4c3C2=O)NC(=O)/C(C)=C\C=C\[C@H](C)[C@H](O)[C@@H](C)[C@@H](O)[C@@H](C)[C@H](OC(C)=O)[C@@H]1C | – | – | – | 2 (≈ 2.29 µM) | – | > 8 | 0.5 (≈ 0.573 µM) | 2 (≈ 2.29 µM) | > 8 | – | < 50 | – | 0.5 (≈ 0.573 µM) | – | – | 2.06 | 2 (≈ 2.29 µM) |
| CO[C@H]1/C=C/O[C@@]2(C)Oc3c(C)c(O)c4c(O)c(c(/C=N/Nc5ccnc6cc(Cl)ccc56)c(O)c4c3C2=O)NC(=O)/C(C)=C\C=C\[C@H](C)[C@H](O)[C@@H](C)[C@@H](O)[C@@H](C)[C@H](OC(C)=O)[C@@H]1C | – | – | – | 0.25 (≈ 0.277 µM) | – | > 8 | 0.125 (≈ 0.139 µM) | 0.25 (≈ 0.277 µM) | 8 (≈ 8.87 µM) | – | < 300 | – | 0.125 (≈ 0.139 µM) | – | – | 2.1 | 0.125 (≈ 0.139 µM) |
| CO[C@H]1/C=C/O[C@@]2(C)Oc3c(C)c(O)c4c(O)c(c(CNC5CCCNC5=O)c(O)c4c3C2=O)NC(=O)/C(C)=C\C=C\[C@H](C)[C@H](O)[C@@H](C)[C@@H](O)[C@@H](C)[C@H](OC(C)=O)[C@@H]1C (stereo partly specified) | – | – | – | 0.5 (≈ 0.607 µM) | – | > 8 | 0.25 (≈ 0.303 µM) | 0.25 (≈ 0.303 µM) | > 8 | – | 210 (≈ 255 µM) | – | 0.25 (≈ 0.303 µM) | – | – | 1.14 | 0.5 (≈ 0.607 µM) |
| CCS(=O)(=O)N1CCN(Cc2c3c(O)c4c(O)c(C)c5c(c4c2O)C(=O)[C@@](C)(O/C=C/[C@H](OC)[C@@H](C)[C@@H](OC(C)=O)[C@H](C)[C@H](O)[C@H](C)[C@@H](O)[C@@H](C)/C=C/C=C(/C)C(=O)N3)O5)CC1 | – | – | – | 0.5 (≈ 0.563 µM) | – | > 8 | 0.25 (≈ 0.282 µM) | 0.5 (≈ 0.563 µM) | > 8 | – | 1730 (≈ 1950 µM) | – | 0.25 (≈ 0.282 µM) | – | – | 1.41 | 0.5 (≈ 0.563 µM) |
| CO[C@H]1/C=C/O[C@@]2(C)Oc3c(C)c(O)c4c(O)c(c(CNC5CCN(S(C)(=O)=O)CC5)c(O)c4c3C2=O)NC(=O)/C(C)=C\C=C\[C@H](C)[C@H](O)[C@@H](C)[C@@H](O)[C@@H](C)[C@H](OC(C)=O)[C@@H]1C | – | – | – | 1 (≈ 1.13 µM) | – | > 8 | 0.25 (≈ 0.282 µM) | 1 (≈ 1.13 µM) | > 8 | – | < 50 | – | 0.5 (≈ 0.563 µM) | – | – | 2.34 | 0.5 (≈ 0.563 µM) |
| CO[C@H]1/C=C/O[C@@]2(C)Oc3c(C)c(O)c4c(O)c(c(CN5CCN(Cc6ccc(F)cc6)CC5)c(O)c4c3C2=O)NC(=O)/C(C)=C\C=C\[C@H](C)[C@H](O)[C@@H](C)[C@@H](O)[C@@H](C)[C@H](OC(C)=O)[C@@H]1C | – | – | – | 1 (≈ 1.11 µM) | – | > 8 | 0.25 (≈ 0.277 µM) | 1 (≈ 1.11 µM) | 8 (≈ 8.85 µM) | – | < 50 | – | 0.25 (≈ 0.277 µM) | – | – | 3.31 | 0.25 (≈ 0.277 µM) |
| CO[C@H]1/C=C/O[C@@]2(C)Oc3c(C)c(O)c4c(O)c(c(CNCCN5CCCC5=O)c(O)c4c3C2=O)NC(=O)/C(C)=C\C=C\[C@H](C)[C@H](O)[C@@H](C)[C@@H](O)[C@@H](C)[C@H](OC(C)=O)[C@@H]1C | – | – | – | 2 (≈ 2.39 µM) | – | > 8 | 1 (≈ 1.19 µM) | 2 (≈ 2.39 µM) | > 8 | – | 100 (≈ 119 µM) | – | 2 (≈ 2.39 µM) | – | – | 1.24 | 4 (≈ 4.77 µM) |
| CO[C@H]1/C=C/O[C@@]2(C)Oc3c(C)c(O)c4c(O)c(c(CN5CCN(C)CC5)c(O)c4c3C2=O)NC(=O)/C(C)=C\C=C\[C@H](C)[C@H](O)[C@@H](C)[C@@H](O)[C@@H](C)[C@H](OC(C)=O)[C@@H]1C | – | – | – | 0.5 (≈ 0.617 µM) | – | > 8 | 0.25 (≈ 0.309 µM) | 0.5 (≈ 0.617 µM) | > 8 | – | 100 (≈ 123 µM) | – | 0.25 (≈ 0.309 µM) | – | – | 1.76 | 1 (≈ 1.23 µM) |
| CO[C@H]1/C=C/O[C@@]2(C)Oc3c(C)c(O)c4c(O)c(c(/C=N/N5CCCCCC5)c(O)c4c3C2=O)NC(=O)/C(C)=C\C=C\[C@H](C)[C@H](O)[C@@H](C)[C@@H](O)[C@@H](C)[C@H](OC(C)=O)[C@@H]1C | – | – | – | 0.0625 (≈ 0.076 µM) | – | > 8 | 0.0312 (≈ 0.038 µM) | 0.0625 (≈ 0.076 µM) | 0.5 (≈ 0.608 µM) | – | < 300 | – | 0.0312 (≈ 0.038 µM) | – | – | 3.43 | 0.5 (≈ 0.608 µM) |
